Data as given in article PMC9406419, “OATD-02 Validates the Benefits of Pharmacological Inhibition of Arginase 1 and 2 in Cancer” (Cancers, 2022).

System: CT26 tumours
Assay: Syngeneic CT26 model, combination with epacadostat and anti-PD-L1 antibody
Type: in vivo, mouse
Details: suboptimal doses: OATD-02 50 mg/kg PO BID; epacadostat 30 mg/kg PO BID; anti-PD-L1 2.5 mg/kg IP days 8, 10, 12, 14, 16
Method: CT26 and K562 in vivo experiments were conducted at Molecure SA. All experimental procedures were approved by the 1st Local Ethics Committee in Warsaw (Poland). For the syngeneic CT26 model, 7–8-week old BALB/c females (n = 9–18 per group, BALB/cAnNCrl, Charles River Laboratories) were injected subcutaneously in the right flank with 5 × 10^5 CT26 cells. […] Anti-PD-L1 antibody (InVivoPlus anti-mouse PD-L1, clone 10F.9G2, BioXCell, lot 615416D1) was injected intraperitoneally at 2.5 mg/kg on days: 8, 10, 12, 14 and 16 post tumour cells inoculation. Control groups received vehicle (saline) or isotype antibody (InVivoPlus rat IgG2b, anti-KLH, BioXCell, lot 629816D1). For the xenograft K562 model, 7–8 week-old athymic nude mice (n = 8–11 per group, Crl:NU(NCr)-Foxn1^nu, Charles River Laboratories) or NK cell-deficient Fox Chase SCID Beige mice (n = 10–12 per group, CB17.Cg-Prkdc^scidLyst^bg-J/Crl, Charles River Laboratories) were injected subcutaneously in the right flank with 1 × 10^7 K562 cells. […] Tumour volume measured by a digital calliper (width × length × depth × π/6) was recorded three times per week. Animals were euthanized when tumours were necrotized or volume exceeded 2000 mm^3. Renca in vivo efficacy study was performed at Crown Biosciences Inc. (Taicang, China). […] Tumour volumes (length × width^2 × 0.5) were measured twice per week. […]

NS(=O)(=O)NCCNc1nonc1C(=NO)Nc1ccc(F)c(Br)c1 [epacadostat, reference compound]
TGI, CT26 tumor growth inhibition - day 24: 41%
